Details: saturation solubility of CBD in the liquid lipid given as label; supernatant assayed
Description: Each liquid lipophilic material was heated at 40° C. for 30 minutes in an oven before being combined with the CBD. 10 g of CBD was combined with 5 g of lipophilic material to create a saturated mixture. […] After agitation the solutions were centrifuged at 14800 rpm for 90 minutes to separate out any remaining undissolved CBD crystals. The resulting supernatant was sampled and assayed for CBD content to confirm the saturation solubility of the lipid.

CCOCCOCCO [Transcutol]
CBD: 653.2 mg/g

From patent US20260053827A1, “Cannabidiol Solid Dosage Forms” (priority 2024, published 2026)
